For this test, the system named is HIF-1 (HRE-dependent luciferase reporter). Nature of the test: HRE-luciferase assay, screening of HIF-1 inhibitors in HCT116 cells. The settings on record: HCT116 cells stably expressing HRE-dependent luciferase reporter, hypoxic conditions, 12 hours, means of three experiments. It is filed as cell-based, human. The method, then: HCT116 cells stably expressing the HRE-dependent luciferase reporter were treated with the disubstituted adamantyl derivative prepared in the above example under hypoxic conditions for 12 hours before measuring luciferase activity.
In HCT116 cells treated with disubstituted adamantyl derivatives, luciferase activity was investigated using HRE-luciferase assay. The HRE-luciferase reporter assay was performed as previously described using the luciferase assay system (Promega, Madison, WI, USA) according to the manufacturer's instructions (Naik, R. et al. Synthesis and Structure-Activity Relationship of (E)Phenoxyacrylic Amide Derivatives as Hypoxia-Inducible Factor (HIF) 1α Inhibitors. J. Med. Chem. 55, 10564-1057 (2012)). Luciferase activity was measured using a Victor X light luminescence reader (PerkinElmer, Boston, MA, USA).
Background: A reporter such as luciferase makes a cellular process visible.

By IC50 is commonly meant the point on the concentration scale where inhibition reaches its midpoint. The low end stands for inhibition by little substance, the high end for a need for much substance.

Consider `COC(=O)c1cccc(NC(=O)COc2ccc(C34CC5CC(CC(C(=O)NCc6ccccc6)(C5)C3)C4)cc2)c1` [Compound 10g, Methyl-3-(2-(4-(3-benzylcarbamoyl-adamantan-1-yl)phenoxy)acetamido)benzoate], for which the IC50 (Homo sapiens, HCT-116) came to 1.3 µM. For the setting “Homo sapiens, HCT-116”, `COC(=O)c1cccc(NC(=O)COc2ccc(C34CC5CC(C3)C(C(=O)OCc3ccc(OC)c(OC)c3)C(C5)C4)cc2)c1` (stereo not shown) [Compound 10c, Methyl-3-(2-(4-(4-((3,4-dimethoxybenzyloxy)carbonyl)adamantane-1-yl)phenoxy)acetamido)benzoate] returned an IC50 of 2.37 µM. On to `COc1ccc(CN2CCN(C(=O)C34CC5CC(C3)CC(c3ccc(OCC(=O)N6CCN(C)CC6)cc3)(C5)C4)CC2)cc1` [Compound 17c, 2-(4-(5-(4-(4-Methoxybenzyl)piperazine-1-carbonyl)adamantan-1-yl)phenoxy)-1-(4-methylpiperazin-1-yl) ethanone], for which the IC50 (Homo sapiens, HCT-116) turned out to be 9.53 µM. Same read-out and setting: the same measure for `COc1cc2c(cc1OC)CN(C(=O)C13CC4CC(C1)CC(c1ccc(OCC(=O)N5CCN(C)CC5)cc1)(C4)C3)CC2` [Compound 21b, 2-(4-(3-(6,7-Dimethoxy-1,2,3,4-tetrahydroisoquinoline-2-carbonyl)adamantan-1-yl)phenoxy)-1-(4-methylpiperazin-1-yl) ethanone]: 9.51 µM. `COc1ccc(COC(=O)C23CC4CC(CC(C4)C2c2ccc(OCC(=O)Nc4cccc5cccnc45)cc2)C3)cc1OC` (stereo not shown) [Compound 14b, 3,4-Dimethoxybenzyl-2-(4-(2-oxo-2-(quinolin-8-ylamino)ethoxy)phenyl) adamantane-1-ylcarboxylate]: the IC50 was over 20 µM. On to `COC(=O)c1cccc(NC(=O)COc2ccc(C34CC5CC(CC(C5)C3C(=O)OCCc3ccc(OC)c(OC)c3)C4)cc2)c1` (stereo not shown) [Compound 10d, Methyl-3-(2-(4-(2-((3,4-dimethoxyphenethoxy)carbonyl)adamantane-1-yl)phenoxy)acetamido)benzoate], for which the IC50 (Homo sapiens, HCT-116) is over 20 µM. For `COc1ccc(COC(=O)C23CC4CC(CC(C4)C2c2ccc(OCC(=O)Nc4cccc(C(F)(F)F)c4)cc2)C3)cc1OC` (stereo not shown) [Compound 14a, 3,4-Dimethoxybenzyl-2-(4-(2-oxo-2-(3-(trifluoromethyl)phenylamino)ethoxy)phenyl) adamantane-1-ylcarboxylae], the IC50 was over 20 µM.

As for `COc1cc2c(cc1OC)CN(C(=O)C13CC4CC(C1)CC(c1ccc(OCC(=O)N5CCOCC5)cc1)(C4)C3)CC2` [Compound 21a, 2-(4-(3-(6,7-Dimethoxy-1,2,3,4-tetrahydroisoquinoline-2-carbonyl)adamantan-1-yl)phenoxy)-1-morpholinoethanone], the IC50 (Homo sapiens, HCT-116) came out at 5.43 µM.

The compound `CN1CCN(C(=O)COc2ccc(C34CC5CC(CC(C(=O)N6CCN(Cc7ccc(C(F)(F)F)cc7)CC6)(C5)C3)C4)cc2)CC1` [Compound 17b, 1-(4-Methylpiperazin-1-yl)-2-(4-(5-(4-(4-(trifluoromethyl)benzyl)piperazine-1-carbonyl)adamantan-1-yl-)phenoxy) ethanone] returned an IC50 of 2.19 µM. In turn, `CN1CCN(C(=O)COc2ccc(C34CC5CC(CC(C(=O)NCc6ccco6)(C5)C3)C4)cc2)CC1` [Compound 17a, N-(Furan-2-ylmethyl)-5-(4-(2-(4-methylpiperazin-1-yl)-2-oxoethoxy)phenyl) adamantan-1-yl-carboxamide] displayed an IC50 of over 20 µM. Take `COc1ccc(COC(=O)C23CC4CC(CC(C4)C2c2ccc(OCC(=O)NCc4ccco4)cc2)C3)cc1OC` (stereo not shown) [Compound 14c, 3,4-Dimethoxybenzyl-2-(4-(2-(furan-2-ylmethylamino)-2-oxoethoxy)phenyl) adamantane-1-ylcarboxylate]: the midpoint of inhibition, the IC50, lay at 22.5 µM. Consider `COC(=O)c1cccc(NC(=O)COc2ccc(C34CC5CC(CC(C(=O)OC)(C5)C3)C4)cc2)c1` [Compound 10a, Methyl-3-(2-(4-(3-((methoxy)carbonyl)adamantane-1-yl)phenoxy)acetamido)benzoate], for which, where the note is “Homo sapiens, HCT-116”, the IC50 was 18.3 µM.

The compound `COC(=O)c1cccc(NC(=O)COc2ccc(C34CC5CC(CC(C(=O)N6CCc7cc(OC)c(OC)cc7C6)(C5)C3)C4)cc2)c1` [Compound 10j, Methyl-3-(2-(4-(3-(6,7-dimethoxy-1,2,3,4-tetrahydroisoquinoline-2-carbonyl)-adamantan-1-yl)phenoxy)acetamido)benzoate] showed an IC50 (Homo sapiens, HCT-116) of 1.3 µM. `CNC(=O)C12CC3CC(C1)CC(c1ccc(OCC(=O)Nc4cccc(C(=O)OC)c4)cc1)(C3)C2` [Compound 10f, Methyl-3-(2-(4-(3-methylcarbamoyl-adamantan-1-yl)phenoxy)acetamido)benzoate] displayed an IC50 (Homo sapiens, HCT-116) of 16.6 µM. Turning to `COC(=O)c1cccc(NC(=O)COc2ccc(C34CC5CC(CC(C(=O)NCc6ccco6)(C5)C3)C4)cc2)c1` [Compound 10h, Methyl-3-(2-(4-(3-(furan-2-ylmethylcarbamoyl)-adamantan-1-yl)phenoxy)acetamido)benzoate], under “Homo sapiens, HCT-116”, the IC50 stood at 3 µM. Regarding `COC(=O)c1cccc(NC(=O)COc2ccc(C34CC5CC(CC(C(=O)OCc6ccco6)(C5)C3)C4)cc2)c1` [Compound 10e, Methyl-3-(2-(4-(3-((furan-2-ylmethoxy)carbonyl)adamantane-1-yl)phenoxy)acetamido)benzoate], the midpoint of inhibition (Homo sapiens, HCT-116), the IC50, lay at 6.4 µM. Against the preceding compound, the IC50 is about 2.1-fold higher. For `COC(=O)c1cccc(NC(=O)COc2ccc(C34CC5CC(CC(C(=O)Nc6ccccn6)(C5)C3)C4)cc2)c1` [Compound 10i, Methyl-3-(2-(4-(3-(pyridin-2-ylcarbamoyl)-adamantan-1-yl)phenoxy)acetamido)benzoate], the IC50 (Homo sapiens, HCT-116) was 2.4 µM. Compared with the last compound, the IC50 is about 2.7-fold lower. `COc1ccc(COC(=O)C23CC4CC(CC(C4)C2c2ccc(OCC(=O)N4CCN(C)CC4)cc2)C3)cc1OC` (stereo not shown) [Compound 14d, 3,4-Dimethoxybenzyl-2-(4-(2-(4-methylpiperazin-1-yl)-2-oxoethoxy)phenyl) adamantane-1-ylcarboxylate] showed an IC50 of 1.67 µM. For the compound `COC(=O)c1cccc(NC(=O)COc2ccc(C34CC5CC(C3)C(C(=O)OCc3ccc(OC)cc3)C(C5)C4)cc2)c1` (stereo not shown) [Compound 10b, Methyl-3-(2-(4-(4-((4-methoxybenzyloxy)carbonyl)adamantane-1-yl)phenoxy)acetamido)benzoate], under “Homo sapiens, HCT-116”, the IC50 was over 20 µM.
